PubChem BioAssay (NCI)
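Cells were grown in 96-well plates and exposed to each compound for 48 hours at five concentrations; endpoints were interpolated linearly between bracketing concentrations, or set to the highest concentration if not reached. TGI: concentration producing complete growth inhibition.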 Where a SMILES comes first, the peptide text is derived from it. [ ]: non-standard residue; d: D form. The star is where a group is joined. ξ: configuration not given here. ξNMeF = CNC(Cc1ccccc1)C(=O)O; NMeV = CN[C@H](C(=O)O)C(C)C; Boc = CC(C)(C)OC(=O)*; OBn = c1ccc(CO*)cc1

Experiments:
Test in all cases: NCI tumour cell line growth inhibition, 48 h
[1] = tested on: CAKI-1 renal
[2] = tested on: HL-60(TB) leukemia
[3] = tested on: HOP-62 NSCLC
[4] = tested on: KM12 colon
[5] = tested on: OVCAR-4 ovarian
[6] = tested on: OVCAR-5 ovarian
[7] = tested on: OVCAR-8 ovarian
[8] = tested on: RXF 393 renal
[9] = tested on: SF-295 CNS
[10] = tested on: SK-MEL-28 melanoma
[11] = tested on: SN12C renal
[12] = tested on: SNB-19 CNS
[13] = tested on: UACC-257 melanoma
[14] = tested on: HCC-2998 colon
[15] = tested on: DU-145 prostate
[16] = tested on: MCF7 breast

Compound `O=C1c2ccccc2C(=O)N1CCCOCc1c[nH]c(=O)[nH]c1=O` has a TGI [1] greater than 100 µM, a TGI [2] greater than 100 µM and a TGI [3] greater than 100 µM. For the same compound, the TGI [4] was greater than 100 µM, the TGI [5] was greater than 100 µM and the TGI [6] was greater than 100 µM. It also gave a TGI [7] greater than 100 µM, a TGI [8] greater than 100 µM and a TGI [9] greater than 100 µM. For the same compound, the TGI [10] was greater than 100 µM, the TGI [11] was greater than 100 µM and the TGI [12] was greater than 100 µM. It also gave a TGI [13] greater than 100 µM.
Work on `C=CCCCCCCCCCP(=O)(c1ccccc1)c1ccc2c(c1)OCCOCCOCCOCCO2` (stereo not given) yielded a TGI [1] greater than 100 µM, a TGI [14] of 31.2 µM and a TGI [2] of 19.7 µM. For the same compound, the TGI [3] was 30.5 µM, the TGI [4] was 25.4 µM and the TGI [5] was 24.8 µM. It also gave a TGI [6] of 31.2 µM, a TGI [7] of 30.3 µM and a TGI [8] of 27.4 µM. The TGI [9] was 28.5 µM, the TGI [10] was 30.1 µM and the TGI [11] was 32.4 µM. It also gave a TGI [12] of 25.7 µM and a TGI [13] of 30.6 µM.
In the case of `Cc1ccc(Nc2cccc3c2C(=O)c2cccc(Nc4ccc(C)cc4S(=O)(=O)O)c2C3=O)c(S(=O)(=O)O)c1`, the TGI [1] is reported as greater than 100 µM, the TGI [14] is reported as greater than 100 µM and the TGI [2] is reported as greater than 100 µM. The TGI [3] was greater than 100 µM, the TGI [4] was greater than 100 µM and the TGI [5] was greater than 100 µM. For the same compound, the TGI [7] was greater than 100 µM, the TGI [8] was greater than 100 µM and the TGI [10] was greater than 100 µM. It also gave a TGI [11] greater than 100 µM, a TGI [12] greater than 100 µM and a TGI [13] greater than 100 µM.
For `C/C(O)=C(\C=N\C(=S)N=Nc1c(O)[nH]c2ccccc12)C(=O)Nc1ccccc1C`, the TGI [1] was greater than 100 µM, the TGI [15] was greater than 100 µM and the TGI [14] was greater than 100 µM. It also gave a TGI [2] greater than 100 µM, a TGI [3] greater than 100 µM and a TGI [4] greater than 100 µM. For the same compound, the TGI [5] was greater than 100 µM, the TGI [6] was greater than 100 µM and the TGI [7] was greater than 100 µM. The TGI [8] was greater than 100 µM, the TGI [9] was greater than 100 µM and the TGI [10] was greater than 100 µM. It also gave a TGI [11] greater than 100 µM, a TGI [12] greater than 100 µM and a TGI [13] greater than 100 µM.
`COc1cccc(NC(=O)CSc2nnc(Cc3ccccc3)o2)c1` showed a TGI [1] greater than 100 µM, a TGI [14] greater than 100 µM and a TGI [2] greater than 100 µM. It also gave a TGI [3] greater than 100 µM, a TGI [4] greater than 100 µM and a TGI [5] greater than 100 µM. It also gave a TGI [6] greater than 100 µM, a TGI [7] greater than 100 µM and a TGI [8] greater than 100 µM. It also gave a TGI [9] greater than 100 µM, a TGI [10] greater than 100 µM and a TGI [11] greater than 100 µM. For the same compound, the TGI [12] was greater than 100 µM and the TGI [13] was greater than 100 µM.
`CCN(CC)C(=O)CCn1cc(F)c(=O)[nH]c1=O` gave a TGI [2] greater than 100 µM, a TGI [3] greater than 100 µM and a TGI [4] greater than 100 µM. The TGI [5] was greater than 100 µM, the TGI [6] was greater than 100 µM and the TGI [7] was greater than 100 µM. For the same compound, the TGI [8] was greater than 100 µM, the TGI [9] was greater than 100 µM and the TGI [10] was greater than 100 µM. For the same compound, the TGI [11] was greater than 100 µM and the TGI [12] was greater than 100 µM.
In the case of `CC(C)[C@@H](C(=O)N(C)[C@H](C(=O)N1CCC[C@H]1C(=O)OCc1ccccc1)C(C)C)N(C)C(=O)C(Cc1ccccc1)N(C)C(=O)[C@H](NC(=O)OC(C)(C)C)C(C)C` (stereo not given in full) (Boc-[dV][ξNMeF][NMeV][NMeV]P-OBn), the TGI [1] is reported as greater than 31.6 µM, the TGI [2] is reported as greater than 31.6 µM and the TGI [3] is reported as greater than 31.6 µM. It also gave a TGI [5] greater than 100 µM, a TGI [6] greater than 31.6 µM and a TGI [7] greater than 31.6 µM. For the same compound, the TGI [8] was greater than 31.6 µM, the TGI [9] was greater than 31.6 µM and the TGI [10] was greater than 31.6 µM. It also gave a TGI [11] greater than 100 µM, a TGI [12] greater than 31.6 µM and a TGI [13] greater than 31.6 µM.
For `C=C1CC(OC)(C(OC)C(=O)N[C@H]2OCO[C@H]3C2O[C@H](C[C@@H](COC)OC)C(C)(C)C3OC)O[C@H](C)[C@@H]1C` (stereo not given in full), the TGI [1] was 3.6 µM, the TGI [2] was 1.33 µM and the TGI [3] was 8.46 µM. The TGI [4] was greater than 47 µM, the TGI [16] was greater than 47 µM and the TGI [5] was 4.25 µM. The TGI [6] was 4 µM, the TGI [7] was 6.89 µM and the TGI [8] was 5.38 µM. For the same compound, the TGI [9] was 3.28 µM, the TGI [10] was 3.45 µM and the TGI [11] was greater than 47 µM. For the same compound, the TGI [12] was 3.22 µM and the TGI [13] was 14.7 µM.
`COc1ccc2c(c1)CCc1c-2[nH]c2cc3c(cc2c1=O)OCO3` showed a TGI [1] greater than 100 µM, a TGI [14] greater than 100 µM and a TGI [2] greater than 100 µM. For the same compound, the TGI [3] was greater than 100 µM, the TGI [4] was greater than 100 µM and the TGI [5] was greater than 100 µM. For the same compound, the TGI [7] was greater than 100 µM, the TGI [10] was greater than 100 µM and the TGI [11] was greater than 100 µM. The TGI [12] was greater than 100 µM.
`CNC(=O)C(C)Oc1ccc(OCC2CCCCC2)cc1` (stereo not given) gave a TGI [2] greater than 100 µM, a TGI [4] greater than 100 µM and a TGI [5] greater than 100 µM. It also gave a TGI [7] greater than 100 µM, a TGI [8] greater than 100 µM and a TGI [9] greater than 100 µM. For the same compound, the TGI [10] was greater than 100 µM, the TGI [11] was greater than 100 µM and the TGI [12] was greater than 100 µM. It also gave a TGI [13] greater than 100 µM.
In the case of `CC(=O)[O-].CC(=O)[O-].O=C(N/N=C/c1cc(Cl)cc(Cl)c1[OH2+])c1ccncc1.[Mn+2]`, the TGI [14] is reported as 17 µM, the TGI [2] is reported as 1.12 µM and the TGI [3] is reported as 68 µM. The TGI [4] was 23.8 µM, the TGI [6] was 8.49 µM and the TGI [7] was 10.1 µM. It also gave a TGI [8] of 20.7 µM, a TGI [9] of 7.48 µM and a TGI [10] of 25 µM. It also gave a TGI [11] of 21.2 µM, a TGI [12] of 36.1 µM and a TGI [13] of 14.7 µM.
`Cc1cc(=O)oc2c1cc1ccc3cccc4ccc2c1c34` gave a TGI [1] greater than 100 µM, a TGI [2] greater than 100 µM and a TGI [7] greater than 100 µM. The TGI [9] was greater than 100 µM, the TGI [10] was greater than 100 µM and the TGI [11] was greater than 100 µM. For the same compound, the TGI [12] was greater than 100 µM.
Work on `CN(c1ccccc1)c1cc2ccccc2nn1` yielded a TGI [1] greater than 100 µM, a TGI [2] greater than 100 µM and a TGI [3] greater than 100 µM. It also gave a TGI [4] greater than 100 µM, a TGI [5] greater than 100 µM and a TGI [6] greater than 100 µM. The TGI [7] was greater than 100 µM, the TGI [8] was greater than 100 µM and the TGI [9] was greater than 100 µM. The TGI [10] was greater than 100 µM, the TGI [11] was greater than 100 µM and the TGI [12] was greater than 100 µM. It also gave a TGI [13] greater than 100 µM.
In the case of `Nc1nc(SCC(=O)c2ccccc2)c2[nH]cnc2n1`, the TGI [1] is reported as greater than 100 µM, the TGI [14] is reported as greater than 100 µM and the TGI [2] is reported as greater than 100 µM. It also gave a TGI [3] greater than 100 µM, a TGI [4] greater than 100 µM and a TGI [5] greater than 100 µM. The TGI [6] was greater than 100 µM, the TGI [7] was greater than 100 µM and the TGI [9] was greater than 100 µM. It also gave a TGI [10] greater than 100 µM, a TGI [11] greater than 100 µM and a TGI [12] greater than 100 µM. It also gave a TGI [13] greater than 100 µM.
